Our source for the IC50 values is patent US6831199B1, “Pyrimidine compounds and derivatives thereof” (G. D. Searle & Co., priority 1995, dated 2004).

The target of assay [1] is T1, Human fibrinogen receptor (αIIbβ3) (Homo sapiens, UniProt P05106+P08514).
T1 construct: Human fibrinogen receptor (αIIbβ3) was purified from outdated platelets; from tissue; host or cells: outdated human platelets
Put plainly: Purified IIb/IIIa receptor assay (solid phase receptor assay, competition with biotinylated vitronectin). Format: binding. To be noted: read-out: IIb/IIIa IC50. The method, boiled down: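 Competition format: 1 nM biotinylated vitronectin plus test compound (highest 1.0×10^−4 M), 2 h at room temperature on wells coated with platelet-derived αIIbβ3. Buffer was TBS containing 1.0 mM Ca, Mg, Mn, pH 7.4. HRP anti-biotin readout at 450 nm; normalized to maximum binding, four-parameter curve fit.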

Assay [2] has as its target T2, Human vitronectin receptor (αvβ3) (Homo sapiens, UniProt P05106+P06756).
T2 construct: Human vitronectin receptor (αvβ3) was purified from human placenta; from tissue; host or cells: human placenta
Description: Vitronectin adhesion assay (solid phase receptor assay, competition with biotinylated vitronectin). It is filed as binding. To be noted: read-out: AvB3 IC50. In a few lines:
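Purified human αvβ3 coated overnight at 4 °C in TBS with 1.0 mM Ca++, Mg++, Mn++, pH 7.4; compounds (top final 1.0×10^−4 M) competed with 1 nM biotinylated vitronectin for 2 h at room temperature. Bound ligand detected by HRP anti-biotin/OPD at A450; values normalized to no-competitor controls, four-parameter curve fit.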

For a further assay, the system named is platelet rich plasma. Put plainly: Human platelet rich plasma assay (ADP induced platelet aggregation). Format: cell-based. To be noted: Homo sapiens, Platelet, ADP induced platelet aggregation in human platelet rich plasma; read-out: Human PRP. The method, boiled down: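 Citrated platelet-rich plasma from aspirin-free healthy human donors was stirred at 37 °C and preincubated with compound for 1 min. Aggregation was then triggered with ADP (added as a 200 uM solution) and recorded photometrically for 3 min. Dose–response curves were built from % inhibition of the maximal saline-control response.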

The structures appear in SMILES notation. Where a name gives a salt, the structure may show the parent alone. Some results are limits rather than exact numbers.

For the compound `N=C(N)Nc1cccc(C(=O)NCC(=O)NC(CC(=O)O)c2ccccc2)c1` (racemic) [Example 4, (±)β-[[2-[[[3-[(aminoiminomethyl)amino]phenyl]carbonyl]amino]acetyl]amino]benzene-propanoic acid, trifluoroacetate salt], the IC50 in assay [1] is 473 nM; in assay [2], 3.17 nM; in the assay with platelet rich plasma, more than 200000 nM.

For `O=C(O)CC(NC(=O)CNC(=O)c1cccc(NC(=O)NCc2ccccc2)c1)c1cccnc1` (racemic) [Example 47, (±)β-[[2-[[[3-[[[(phenylmethyl)amino]carbonyl]amino]phenyl]carbonyl]amino]acetyl]amino]pyridine-3-propanoic acid, hydrochloride salt], the values for the IC50 (in assay [1]; in assay [2]; in the assay with platelet rich plasma) were 4270 nM, 0.86 nM and more than 200000 nM, respectively.

Take `O=C(O)CC(NC(=O)CNC(=O)c1cccc(NC2=NCCCCC2)c1)c1ccccc1` (racemic) [Example 15, (±)β-[[2-[[[3-[(3,4,5,6-tetrahydro-2H-azepin-7-yl)amino]phenyl]carbonyl]amino]acetyl]amino]benzenepropanoic acid, trifluoroacetate salt]: the figures for the IC50 (in assay [1]; in assay [2]; with platelet rich plasma) were 3830 nM, 10.2 nM and more than 200000 nM, respectively.

On to `N=C(N)Nc1cc(C(=O)NCC(=O)NC(CC(=O)O)c2cccnc2)c2ccccc2c1` (racemic) [Example 8, (±)β-[[2-[[[3-[(aminoiminomethyl)amino]naphthalen-1-yl]carbonyl]amino]acetyl]amino]pyridine-3-propanoic acid, bis(trifluoroacetate)salt], for which the values for the IC50 (in assay [1]; in assay [2]; with platelet rich plasma) were 9.83 nM, 0.69 nM and 73300 nM, respectively.

On to `N=C(N)Nc1cccc(C(=O)NCC(=O)NC(CC(=O)O)c2ccoc2)c1` (racemic) [Example 52, (±)β-[[2-[[[3-[(aminoiminomethyl)amino]phenyl]carbonyl]amino]acetyl]amino]furan-3-propanoic acid, trifluoroacetate salt], for which the values for the IC50 (in assay [1]; in assay [2]; with platelet rich plasma) were 139 nM, 3.62 nM and more than 200000 nM, respectively.

As for `NC(=S)Nc1cccc(C(=O)NCC(=O)NC(CC(=O)O)c2cccnc2)c1` (stereo not drawn) [Example 114, β-[[2-[[[3-[(aminothioxomethyl)amino]phenyl]carbonyl]amino]acetyl]amino]pyridine-3-propanoic acid, trifluoroacetate salt], the IC50 in assay [1] was 2940 nM; in assay [2], 3.26 nM; with platelet rich plasma, more than 200000 nM.

Take `N=C(N)Nc1cccc(C(=O)NCC(=O)N[C@@H](CC(=O)O)CS(=O)(=O)c2ccccc2C(=O)O)c1` [Example 71, 2-[[2S-[[2-[[[3-[(aminoiminomethyl)amino]phenyl]carbonyl]amino]acetyl]amino]-2-(carboxymethyl)ethyl]sulfonyl]benzoic acid, TFA salt]: the IC50 in assay [1] is 202 nM; in assay [2], 20.4 nM; with platelet rich plasma, more than 200000 nM.

In the case of `O=C(O)CC(NC(=O)CNC(=O)c1cccc(NC2=NCCC2)c1)c1cccnc1` (stereo not drawn) [Example 17, β-[[2-[[[3-[(3,4-dihydro-2H-pyrrol-5-yl)amino]phenyl]carbonyl]amino]acetyl]amino]pyridine-3-propanoic acid, bis(trifluoroacetate)salt], the IC50 is 137 nM in assay [1], 2.66 nM in assay [2] and more than 200000 nM in the assay on platelet rich plasma.

As to `O=C(O)CC(NC(=O)CNC(=O)c1cccc(NC2=NCCCCC2)c1)c1ccc2c(c1)OCO2` (racemic) [Example 14, (±)β-[[2-[[[3-[(3,4,5,6-tetrahydro-2H-azepin-7-yl)amino]phenyl]carbonyl]amino]acetyl]amino]-1,3-benzodioxole-5-propanoic acid, TFA salt], the IC50 in assay [1] is 139 nM; in assay [2], 1.62 nM; in the assay with platelet rich plasma, more than 200000 nM.

As to `N=C(N)Nc1cccc(C(=O)NCC(=O)NC(CC(=O)O)c2ccc3ccccc3c2)c1` (racemic) [Example 56, (±)β-[[2-[[[3-[(aminoiminomethyl)amino]phenyl]carbonyl]amino]acetyl]amino]naphthalene-2-propanoic acid, trifluoroacetate salt], the IC50 was 65.3 nM in assay [1], 3.12 nM in assay [2] and more than 200000 nM with platelet rich plasma.

Turning to `N=C(N)Nc1cccc(C(=O)NCC(=O)NC(CC(=O)O)c2cnc3ccccc3c2)c1` (stereo not drawn) [Example 99, β-[[2-[[[3-[(aminoiminomethyl)amino]phenyl]carbonyl]amino]acetyl]amino]quinoline-3-propanoic acid, bis(trifluoroacetate)salt], the IC50 in assay [1] worked out at 1.89 nM; in assay [2] it was 0.38 nM; in the assay with platelet rich plasma, 57500 nM.

Regarding `Cc1ccc(S(=O)(=O)CCC(CC(=O)O)NC(=O)CNC(=O)c2cccc(NC(=N)N)c2)cc1` (racemic) [Example 67, (±)3-[[2-[[[3-[(aminoiminomethyl)amino]phenyl]carbonyl]amino]acetyl]amino]-5-[(4-methylphenyl)sulfonyl]pentanoic acid, trifluoroacetate salt], the IC50 is 92.3 nM in assay [1], 2.05 nM in assay [2] and more than 200000 nM with platelet rich plasma.

As for `N=C(N)Nc1cccc(C(=O)NCC(=O)NC(CC(=O)O)c2cc(C(F)(F)F)cc(C(F)(F)F)c2)c1` (racemic) [Example 36, (±)β-[[2-[[[3-[(aminoiminomethyl)amino]phenyl]carbonyl]amino]acetyl]amino]-3,5-bis(trifluoromethyl)benzenepropanoic acid, trifluoroacetate salt], the IC50 in assay [1] is 1580 nM; in assay [2] it was 14.6 nM; in the assay with platelet rich plasma, more than 200000 nM.

In the case of `N=C(N)Nc1cccc(C(=O)NCC(=O)NC(CC(=O)O)c2cccs2)c1` (racemic) [Example 61, (±)β-[[2-[[[3-[(aminoiminomethyl)amino]phenyl]carbonyl]amino]acetyl]amino]thiophene-2-propanoic acid, trifluoroacetate salt], the IC50 in assay [1] is 192 nM; in assay [2], 1.76 nM; with platelet rich plasma it was more than 200000 nM.

Turning to `C#C[C@H](CC(=O)O)NC(=O)CNC(=O)c1cccc(NC(=N)N)c1` [Example 45, 3S-[[2-[[[3-[(aminoiminomethyl)amino]phenyl]carbonyl]amino]acetyl]amino]-4-pentynoic acid, hydrochloride salt], the IC50 in assay [1] came to 39.5 nM; in assay [2], 0.69 nM; in the assay on platelet rich plasma, 167000 nM.

As for `C#C[C@@H](CC(=O)O)NC(=O)CNC(=O)c1cccc(NC(=N)N)c1` [Example 43, 3R-[[2-[[[(3-[(aminoiminomethyl)amino]phenyl]carbonyl]amino]acetyl]amino]-4-pentynoic acid, hydrochloride salt], the values for the IC50 (in assay [1]; in assay [2]; in the assay on platelet rich plasma) were 1640 nM, 28.3 nM and more than 200000 nM, respectively.

`Cc1ccc(C(=O)NCC(=O)NC(CC(=O)O)c2cccnc2)cc1NC(=N)N` (racemic) [Example 83, (±)β-[[2-[[[3-[(aminoiminomethyl)amino]-4-methylphenyl]carbonyl]amino]acetyl]amino]pyridine-3-propanoic acid, bis(trifluoroacetate)salt]: the IC50 is 97.7 nM in assay [1], 3.39 nM in assay [2] and more than 200000 nM in the assay on platelet rich plasma.

`N=C(N)Nc1cccc(C(=O)NCC(=O)NC(CC(=O)O)c2ccsc2)c1` (racemic) [Example 59, (±)β-[[2-[[[3-[(aminoiminomethyl)amino]phenyl]carbonyl]amino]acetyl]amino]thiophene-3-propanoic acid, trifluoroacetate salt]: the IC50 was 172 nM in assay [1], 2.35 nM in assay [2] and more than 200000 nM with platelet rich plasma.

For `O=C(O)CC(NC(=O)CNC(=O)c1cccc(NC2=NCCCCC2)c1)c1cccnc1` (racemic) [Example 12, (±)β-[[2-[[[3-[(3,4,5,6-tetrahydro-2H-azepin-7-yl)amino]phenyl]carbonyl]amino]acetyl]amino]pyridine-3-propanoic acid, bis(trifluoroacetate)salt], the IC50 in assay [1] is 595 nM; in assay [2], 1.1 nM; with platelet rich plasma it was more than 200000 nM.

With `O=C(O)CC(NC(=O)CNC(=O)c1cccc(NC2=NCCN2)c1)c1cccnc1` (racemic) [Example 10, (±)β-[[2-[[[3-[(4,5-dihydro-1H-imidazol-2-yl)amino]phenyl]carbonyl]amino]acetyl]amino]pyridine-3-propanoic acid, bis(trifluoroacetate)salt], the results for the IC50 (in assay [1]; in assay [2]; with platelet rich plasma) were 54.4 nM, 0.92 nM and more than 200000 nM, respectively.

Take `NC(=O)Nc1cccc(C(=O)NCC(=O)NC(CC(=O)O)c2cccnc2)c1` (stereo not drawn) [Example 46, β-[[2-[[[3-(aminocarbonylamino)phenyl]carbonyl]amino]acetyl]amino]pyridine-3-propanoic acid, hydrochloride salt]: the results for the IC50 (in assay [1]; in assay [2]; in the assay on platelet rich plasma) were 1680 nM, 5.34 nM and more than 200000 nM, respectively.

Take `N=C(NCc1ccccc1)Nc1cccc(C(=O)NCC(=O)NC(CC(=O)O)c2cccnc2)c1` (racemic) [Example 24, (±)β-[[2-[[[3-[[imino[(phenylmethyl)amino]methyl]amino]phenyl]carbonyl]amino]acetyl]amino]pyridine-3-propanoic acid, bis(trifluoroacetate)salt]: the IC50 was 58.6 nM in assay [1], 0.91 nM in assay [2] and more than 200000 nM in the assay on platelet rich plasma.
